Measurements published in paper PMC11969438 (Inorganic Chemistry Frontiers, 2025).

Assays:
HCT116/OxR cells = experiment: MTT-based cell viability assay, 72 h; design: species or system human
Procedure: Cell models were seeded (2–2.5 × 10^3 cells per well) in 96-well plates. After 24 h of recovery, the compounds were applied at the concentrations indicated in triplicate. Cell viability was determined after 72 h of continuous drug incubation using an MTT-based cell viability assay (EZ4U, Biomedica, Vienna, Austria) according to the manufacturer's recommendations. Absorbance was measured at 450 nm (vs. 620 nm as reference) using a multimode microplate reader (Tecan Spark, Zurich, Switzerland). Half-maximal inhibitory concentrations (IC50 values) were derived via interpolation from dose–response curves, modeled with the four-parameter logistic (4PL) nonlinear regression model in GraphPad Prism (La Jolla, CA, USA) from at least three independent experiments.

[1] = test system: IRF pathway (STING-dependent); experiment: IRF-inducible luciferase reporter in THP1-Dual reporter cell model; format: cell-based, human; conditions: for IRF %EMAX of MSA-2: maximal response relative to MSA-2, highest tested dose 100 μM; for EC50: 24 h exposure, normalized to cell viability, oxaliplatin in combinations 5 μM
From the text: (§1) The THP1-Dual™ reporter cell model for simultaneously monitoring the activity of the IRF and NF-κB pathway contains an IRF-inducible luciferase reporter under the control of an ISG54 minimal promoter in conjunction with five interferon (IFN)-stimulated response elements, and an induced SEAP driven by an IFN-β minimal promoter fused to five copies of the NF-κB consensus transcriptional response element and three copies of the c-Rel binding site. The luciferase and SEAP reporter are measurable in the cell culture supernatant using QUANTI-Luc™ 4 Lucia/Gaussia (InvivoGen) and QUANTI-Blue™ (InvivoGen) solution, respectively. Cells were seeded at 1 × 10^5 cells per well in 96-well plates in RPMI-1640 medium, supplemented with 10% FCS, L-glutamine and Pen-Strep. After 2 h of recovery, the compounds were applied at the concentrations indicated in triplicate. The cell culture supernatant (SN) was collected after 24 h of drug incubation and secreted luciferase and SEAP reporter levels were measured according to the manufacturer's recommendations. In brief, for the detection of luciferase, 20 μL of SN were transferred into 96-well white opaque plates, and 30 μL of QUANTI-Luc™ reagent were added per well using an injector module in a multimode microplate reader (Tecan Spark, Zurich, Switzerland). Luminescence was recorded at a reading time of 0.1 second. For the detection of SEAP, 10 μL of SN were transferred to 96-well plates and 90 μL of QUANTI-Blue™ were added per well. Absorbance was measured at 620 nm. Half-maximal effective concentrations (EC50 values) were derived via interpolation from dose–response curves, modeled with the four-parameter logistic (4PL) nonlinear regression model in GraphPad Prism. For comparison, the maximal response rate of the prodrug was depicted in the percent of the maximal response rate achieved by SR-717 or MSA-2 (%EMAX) at the respective concentrations tested. Activatability, tested in co-incubation experiments with AA (50 μM), was expressed as the area under the curve (AUC) ratio of +AA vs. −AA-treated cells. The STING-dependency of the reporter induction was tested by co-administration of the STING inhibitor H-151 (10 μM), added to the cell culture medium 2 h before applying the investigated compounds. In addition to monitoring secreted reporter levels, the cell viability of the reporter cells was determined after 24 h of drug treatment by an MTT-based cell viability assay.

[2] = test system: NF-κB pathway (STING-dependent); experiment: NF-κB-inducible SEAP reporter in THP1-Dual reporter cell model; format: cell-based, human; conditions: for NF-κB %EMAX of MSA-2: maximal response relative to MSA-2; for EC50: 24 h exposure, normalized to cell viability, oxaliplatin in combinations 5 μM
From the text: as §1

THP1-Dual cells [3] = experiment: Cytokine and chemokine secretion in cell culture supernatant, Luminex; format: cell-based, human; conditions: 24 h
Procedure: Quantification of secreted protein targets in either cell culture SN or in plasma of treated animals was performed using a ProcartaPlex (96-well) multiplex assay panel (Thermo Fisher Scientific) in the xMAP detection platform (Luminex). For the in vitro detection of secreted proteins, THP1-Dual cells were seeded at 1 × 10^5 cells per well in 96-well plates in RPMI-1640 medium, supplemented with 10% FCS, L-glutamine and Pen-Strep. After 24 h of recovery, the compounds were applied at the concentrations indicated in triplicate.
After 24 h of drug incubation, the cell culture SN of technical triplicate was collected, pooled, centrifuged (400g, 10 min, 4 °C), transferred into a fresh tube, and stored at −20 °C.
Next, the ProcartaPlex (96-well) multiplex assay panel was performed according to the manufacturer's recommendations. In brief, the capture bead mix was incubated with test samples (undiluted SN or mouse plasma) or standard mix overnight. The SN of three independent experiments or the plasma of four animals per treatment group was loaded onto the multiplex assay plate. Next, biotinylated detection antibody mix and Streptavidin-PE were added to the plate. Following the recommended washing steps, the samples were incubated in a reading buffer and were measured using a Luminex xMAP platform (Bio-Plex MAGPIX Multiplex Reader; Bio-Rad Laboratories) and analyzed using xPONENT software.

[4] = Platinum distribution study in vivo by ICP-MS; design: species or system CT-26 tumor-bearing BALB/c mice; conditions: i.v., 24 h after second dose; for serum platinum levels: two doses
Procedure: Tumor size was determined daily via manual caliper measurement. […] Animals were euthanized via cervical dislocation.
The generation and treatment of tumor-bearing mice are outlined in the section “In vivo syngraft experiments” described above. Mouse tissues were processed as described previously.[13] Briefly, serum was isolated from peripheral blood by centrifugation (900g, 10 min, 4 °C, twice). Tissues were digested in 20% nitric acid and hydrogen peroxide using an open-vessel graphite digestion system. The platinum concentration was determined by ICP-MS analysis; for details see “Intracellular platinum accumulation in vitro by ICP-MS”.

THP1-Dual cells [5] = experiment: Intracellular platinum accumulation in vitro by ICP-MS; format: cell-based, human; conditions: 3 h exposure; for cellular platinum accumulation: compared to oxaliplatin
Procedure: The THP1-Dual cell model was seeded at 1 × 10^6 cells per well in six-well plates. After 24 h of recovery, the compounds were applied at the concentrations indicated in triplicate. After 3 h of drug exposure, the cells were prepared as published previously.[13] […] The lysate was filled up to 8 mL with water. The platinum concentration was determined by ICP-MS analysis. Platinum and rhenium standards were derived from CPI International (Amsterdam, the Netherlands). The total platinum content was determined with an Agilent 7800 quadrupole-based ICP-MS instrument (Agilent Technologies, Tokyo, Japan) equipped with an Agilent SPS 4 autosampler (Agilent Technologies, Tokyo, Japan) and a MicroMist nebulizer at a sample uptake rate of approximately 0.2 mL min^−1. […] Argon was used as a plasma gas (15 L min^−1) and as a carrier gas (∼1.1 L min^−1). The dwell time was set to 0.1 s and the measurements were performed in 12 replicates with 100 sweeps. Rhenium served as an internal standard for platinum.

| SMILES | resistance factor (IC50 ratio HCT116/OxR vs parental HCT116) (HCT116/OxR cells) [fold] | IRF EC50 ratio fold MSA-2 ([1]; 24 h) [fold] | IRF %EMAX of MSA-2 ([1]; 24 h) [%] | EC50 [1] [µM] | NF-κB EC50 ratio fold MSA-2 ([2]; 24 h) [fold] | NF-κB %EMAX of MSA-2 ([2]; 24 h) [%] | EC50 [2] [µM] | secretion of cytokines and chemokines (THP1-Dual cells [3]; prodrug 100 μM, MSA-2 25 μM) | liver platinum level relative to tumor ([4]; two doses equimolar to 9 mg kg^−1 oxaliplatin) [fold] | serum platinum levels [4] | cellular platinum content vs oxaliplatin (THP1-Dual cells [5]; 10 μM) | intracellular platinum levels vs oxaliplatin (THP1-Dual cells [5]; 50 μM, without statistical significance) | cellular platinum accumulation (THP1-Dual cells [5]) | impact of reducing conditions on IRF-induced reporter signal (AUC ratio +AA/−AA) ([1]; AA 50 μM) | IC50 (HCT116/OxR cells; without AA) [µM] | activation of IRF signaling pathway ([1]; 24 h) | activation of NF-κB signaling pathway ([2]; 24 h) | TNF-α and IFN-γ secretion (THP1-Dual cells [3]; oxaliplatin 5 μM) |
| --- | --- | --- | --- | --- | --- | --- | --- | --- | --- | --- | --- | --- | --- | --- | --- | --- | --- | --- |
| COCCOCCOCCOCCNC(=O)[O][Pt-2]12([O]C(=O)CCC(=O)c3cc4cc(OC)c(OC)cc4s3)([NH2+][C@@H]3CCCC[C@H]3[NH2+]1)[O]C(=O)C(=O)[O]2 [Ox-MSA-PEG-Ca, (OC-6-34)-[(1R,2R)-1,2-cyclohexanediamino]-oxalato-[4-(5,6-dimethoxybenzo[b]thiophen-2-yl)-4-oxobutylcarboxylato]-[3,6,9,12-tetraoxatridecan-1-amino]platinum(IV)] | 2.7 | 6.3 | 68 | 57.8 | 3.1 | 24 | 55.4 | induced distinct secretion of cytokines and chemokines | 9.7 | Low serum platinum levels | – | – | – | – | – | – | – | – |
| COCCOCCOCCOCCC(=O)[O][Pt-2]12([O]C(=O)CCC(=O)c3cc4cc(OC)c(OC)cc4s3)([NH2+][C@@H]3CCCC[C@H]3[NH2+]1)[O]C(=O)C(=O)[O]2 [Ox-MSA-PEG-Es, (OC-6-44)-[(1R,2R)-1,2-cyclohexanediamino]-oxalato-[4-(5,6-dimethoxybenzo[b]thiophen-2-yl)-4-oxobutylcarboxylato]-[2,5,8,11-tetraoxatetradecanoato]platinum(IV)] | > 3.1 | 8.6 | 24 | 78.8 | > 5.7 | 15 | > 100 | – | – | – | significantly higher platinum content | lower intracellular platinum levels | did not show a comparable amount of platinum hyper-accumulation | significantly enhanced | – | – | – | – |
| O=C1[O][Pt]2([NH][C@@H]3CCCC[C@H]3[NH]2)[O]C1=O [oxaliplatin, reference compound] | – | – | – | – | – | – | – | – | – | Low serum platinum levels | – | – | accumulated dose-dependently | – | 27.5 | did not induce observable activation | did not induce observable activation | activated predominantly by oxaliplatin |
